According to US8440442B2, “Method of assaying 5-FU” (Myriad Genetics, Inc, priority 2009, dated 2013):

Experiments:
[1] = target: T1, dihydropyrimidine dehydrogenase (DPD) (Homo sapiens, UniProt Q12882); assay: 5-Vinyluracil, 5-iodouracil and gimeracil as stabilizer of 5-FU in spiked donor blood; format: biochemical; conditions: 500 ng/mL 5-FU; 5-iodouracil 10/40 μg/mL, 5-vinyluracil 5/20 μg/mL, gimeracil 300/1,200 ng/mL; 45 minutes room temperature (FIG. 3)
T1 construct: from tissue; host or cells: donor whole blood (K2EDTA), plasma separated from it, and WBC/buffy coat
T1 sequence (Q12882 4-1025): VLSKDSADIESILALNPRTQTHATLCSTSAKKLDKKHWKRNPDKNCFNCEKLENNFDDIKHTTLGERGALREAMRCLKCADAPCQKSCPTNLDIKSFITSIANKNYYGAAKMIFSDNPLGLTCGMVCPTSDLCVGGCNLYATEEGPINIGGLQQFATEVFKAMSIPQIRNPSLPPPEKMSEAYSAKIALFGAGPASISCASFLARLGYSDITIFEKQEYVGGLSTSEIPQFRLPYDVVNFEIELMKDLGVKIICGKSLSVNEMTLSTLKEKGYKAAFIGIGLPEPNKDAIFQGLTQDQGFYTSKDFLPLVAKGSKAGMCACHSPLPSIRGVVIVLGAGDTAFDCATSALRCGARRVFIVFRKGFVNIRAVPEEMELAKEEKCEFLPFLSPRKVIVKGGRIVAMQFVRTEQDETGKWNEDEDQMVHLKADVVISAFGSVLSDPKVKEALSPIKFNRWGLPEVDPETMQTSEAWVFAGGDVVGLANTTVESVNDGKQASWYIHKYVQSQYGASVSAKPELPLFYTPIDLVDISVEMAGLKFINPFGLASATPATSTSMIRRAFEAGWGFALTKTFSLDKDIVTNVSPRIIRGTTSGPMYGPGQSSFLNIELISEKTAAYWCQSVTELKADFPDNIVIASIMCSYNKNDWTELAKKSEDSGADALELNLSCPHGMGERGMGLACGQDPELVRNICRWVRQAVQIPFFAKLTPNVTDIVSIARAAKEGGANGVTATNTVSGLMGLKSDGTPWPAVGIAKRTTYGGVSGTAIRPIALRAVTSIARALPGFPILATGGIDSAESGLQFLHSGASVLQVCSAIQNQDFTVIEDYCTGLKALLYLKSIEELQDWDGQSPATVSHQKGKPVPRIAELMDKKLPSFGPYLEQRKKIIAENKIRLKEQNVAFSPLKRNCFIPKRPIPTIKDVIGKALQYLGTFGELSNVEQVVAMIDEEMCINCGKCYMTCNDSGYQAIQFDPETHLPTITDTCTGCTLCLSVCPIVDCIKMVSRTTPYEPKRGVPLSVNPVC
Experimental: (§1) In the following illustrative examples, 5-FU was measured using an antibody-based agglutination assay on the Olympus AU680 Analyzer using an antibody disclosed in U.S. Pat. No. 7,205,116. Specifically, the concentration of 5-FU in a sample is determined based on the absorbance of a sample, which is determined by the amount of aggregation by the nanoparticles. The system requires two reagents, which when mixed in the absence of free 5-FU will form large aggregates of nanoparticles and scatter light to result in a higher absorption value. In the presence of free 5-FU, the agglutination reaction becomes somewhat inhibited and scattering of light is less, causing a lower absorption value. The instrument is calibrated twice monthly, and a curve is generated (Absorbance vs. 5-FU concentration). Absorbance values from individual samples are compared against this curve to determine concentration.
(§2) Generally in the agglutination assay, 95 μl of a buffer containing 5-FU-labeled amino-dextran is pipetted to a cuvette, followed by 7 μL of a filtered plasma sample. The sample and reagent are mixed and then incubated for about 3.5 minutes. 95 μl of 5-FU antibody-conjugated nanoparticles is pipetted into the cuvette and mixed. The complete reaction incubates for about 6.2 minutes. A series of 27 measurements at 600 nm are taken at regular intervals by the AU680 analyzer throughout this process, and 5-FU concentration is calculated using the measurements from two specific time points.
Three tubes of blood (spray-on K2EDTA tubes, 10 mL) was drawn from each of six donors, and blood tubes were gently inverted several times to mix anti-coagulant. Blood was pooled and kept separate by donor. An aliquot of each blood sample was transferred to a new conical tube, and a calculated volume of stock 5-FU (at 200 ng/μL) was spiked into each blood sample for a final concentration of 500 ng/mL 5-FU. Each blood sample was aliquotted to a set of four tubes (5 mL blood per tube). Each set of tubes was different, but included a combination of the conditions below: […]

[2] = target: T1, dihydropyrimidine dehydrogenase (DPD); assay: Eniluracil as stabilizer of 5-FU in spiked donor blood (5-FU agglutination immunoassay); format: biochemical; conditions: eniluracil 4000 or 1000 ng/mL final in blood, DMSO; 500 ng/mL 5-FU; room temperature 45 minutes or 24 hours (FIG. 2)
Experimental: as §1
as §2, with “95 μl of 5-FU antibody-conjugated nanoparticles is pipetted into the cuvette and mixed. The complete reaction incubates for about 6.2 minutes.” left out, “points. […]” for “points.”

Row | stabilizing 5-FU in blood samples [1] | preventing degradation of 5-FU in blood samples [2] | SMILES
1 | effective |  | O=c1[nH]cc(I)c(=O)[nH]1 [5-iodouracil]
2 | effective |  | C=Cc1c[nH]c(=O)[nH]c1=O [5-vinyluracil]
3 |  | effective | C#Cc1c[nH]c(=O)[nH]c1=O [eniluracil]
